Data reported in doi:10.1101/2021.04.12.439490v1 (biorxiv, 2021).

Target: full-length WDR5, C-terminal NanoLuc fusion (WDR5-C) (Homo sapiens, UniProt P61964)
Assay: NanoBRET tracer titration
Format: cell-based

## CN1CCN(c2ccc(-c3ccc(C(=O)NCCCOCCOCCOCCCNC(=O)CCc4ccc5n4[B-](F)(F)[N+]4=C(c6ccc[nH]6)C=CC4=C5)cc3)cc2NC(=O)c2c[nH]c(=O)cc2C(F)(F)F)CC1 [19c]
  Kd: ~1000 nM
